Test results as given in patent US5786377A, “Pyrrolo[3,2-E]indol derivatives, process for the preparation thereof and applications” (Universidad de Santiago de Compostela, priority 1993, dated 1998).
In brackets after ≈: the same amount, converted by molar mass.

Experiments:
P388 leukemic tumor = test: P388 antitumoral model in vivo, survival of leukemic mice (%C/T); parameters: species or system mouse
Method: Description of the P388 Antitumoral Model
Normally, 1×10^6 cells in ascitic fluid was implanted. i.p. in CD2 F1 mice. Treatment with the agent tested i.p. began one day after the tumor had been implanted and it is continued daily up to a total of 5 injections for synthetic products and of 9 injections for raw natural products. The results are expressed as percentage of the control survival time.
CDFl mice weighing 18-22 gr (+/-3 gr) were implanted on day 0 of the test period 0.1 ml. of a dilution of 1.0×10^7 tumor cells coming from DBA/2N mice used for the propagation of the tumor.
On day 1 of the test period the animals were grouped at randam in groups of six animals. Each group is weighed and the average weight is written down. Each compound to be tested in duluted in 4 lvels of dosis for each multidose test as of the determiantion of the highest non-toxic dose (v.g. 400 mg/kg; 100 mg/kg; 10 mg/kg.)
Administration of the test compounds is started on day 1 using volumns of 1/2 drug injected i.p. Injections are given on days 1 to 9 of the test period, unless it is indicated to the contrary. The animals are weighed on day 5, which is the one which in this system is considered the day of toxicity. Toxicity in this test system is defined as: […]
A. 34% deaths up to day 5--acute toxicity
B. C/T <85% --chronic toxicity
C. A negative average of the weight change of the animals >4 g up to day 5--chronic toxicity
The data obtained upon testing the compounds in vivo in comparison with the P388 leukemic tumor model in mice are shown in the following table:
Where %C/T means average survival of the tested group/average survival of […]

cancer = test: anticarcinogenic activity in vivo and toxicity, general statement on the biological activity studies; conditions: in words; for toxicity: in vivo
Excerpt: This makes them especially ideal for used as agents for the therapeutic treatment of cancer in its diverse manifestations and, especially, in cases of leukemia.

[1] = cited from earlier work
[2] = compared with CC-1065; cited from earlier work
P388 = conditions: cited from earlier work
[3] = in words; cited from earlier work
P-388 = test: in vitro test, P-388; format: cell-based; conditions: Mus musculus, P388
Excerpt: (§1) On the other hand, the results of the tests in vitro carried out on compounds (IIIa) and (IIIb) were the following: […]

A-549 = test: in vitro test, A-549; format: cell-based; conditions: Homo sapiens, A549
Excerpt: as §1

HT-29 = test: in vitro test, HT-29; format: cell-based; conditions: Homo sapiens
Excerpt: as §1

MEL-28 = test: in vitro test, MEL-28; format: cell-based; conditions: Homo sapiens, SK-MEL-28
Excerpt: as §1

COC(=O)c1cn(C)c2c1C13CC1CN(C(=O)c1cc4cc(NC(=O)c5cc6ccccc6o5)ccc4[nH]1)C3=CC2=O (stereo not drawn) [(IV), methyl 2-[5-[(benzofuran-2-ylcarbonyl)amino]-1H-indol-2-carbonyl]-5-methyl-4-oxo,1,2,4,5,8,8,a-hexahydrocyclopropa[c]pyrrolo[3,2-e]indol-7-carboxylate]
%C/T (average survival of the tested group/average survival of the controls and untreated ones) (P388 leukemic tumor; 0.300 mg/kg i.p.): 251.1% | %C/T activity class (significance mark) (P388 leukemic tumor; 0.300 mg/kg i.p.): ** (Significant activity (strong): C/T > = 175%) | toxicity (cancer): very low toxicity | anticarcinogenic activity in vivo (cancer): high anticarcinogenic activity in vivo

COC(=O)c1cn(C)c2c1C13CC1CN(C(=O)c1cc4cc(OC)c(OC)c(OC)c4[nH]1)C3=CC2=O (stereo not drawn) [(VI), methyl 2-(5,6,7-trimethoxy-1H-indolz2-carbonyl)-5-methyl-4-oxo-1,2,4,5,8a-hexahydrocyclopropa[c]pyrrolo[3,2-e]indol-7-carboxylate]
%C/T (average survival of the tested group/average survival of the controls and untreated ones) (P388 leukemic tumor; 0.500 mg/kg i.p.): 210.9% | %C/T activity class (significance mark) (P388 leukemic tumor; 0.500 mg/kg i.p.): ** (Significant activity (strong): C/T > = 175%) | toxicity (cancer): very low toxicity | anticarcinogenic activity in vivo (cancer): high anticarcinogenic activity in vivo

Cc1c[nH]c2c1C13CC1CN(C(=O)c1cc4cc(NC(=O)c5cc6ccccc6o5)ccc4[nH]1)C3=CC2=O (stereo not drawn) [Adocelesine]
delayed lethality ([1]; mouse, in vivo): without provoking delayed lethality | tumoral effectiveness versus the natural product [2]: greatly exceeds the natural product in tumoral effectiveness

O=C(Nc1ccc2[nH]c(C(=O)N3CC4CC45C3=CC(=O)c3ccccc35)cc2c1)c1cc2ccccc2[nH]1 (stereo not drawn) [CBI-Ind2]
results in the P388 model in vivo (P388): very good results in the P388 model in vivo

COc1c(O)c2c(c3cc(C(=O)N4CCc5c4c(O)c(OC)c4[nH]c(C(=O)N6CC7CC78C6=CC(=O)c6[nH]cc(C)c68)cc54)[nH]c13)CCN2C(N)=O (stereo not drawn) [CC-1065]
toxicity (delayed deaths) ([1]; mice, therapeutic doses): high toxicity, producing delayed deaths in mice at therapeutic doses | cytotoxic strength [3]: extremely strong cytoxine

COC(=O)c1cn(C)c2c(O)cc3c(c12)C(CCl)CN3C(=O)c1cc2cc(NC(=O)c3cc4ccccc4o3)ccc2[nH]1 (stereo not drawn) [Compound (III), methyl 6-{5-[(benzofuran-2-ylcarbonyl)-amino]1H-indol-2-carbonyl}-8-chloromethyl-4-hydroxy-3-methyl-3,6,7,8,tetrahydropyrrolo[3,2-e]indol-1-carboxylate]
%C/T (average survival of the tested group/average survival of the controls and untreated ones) (P388 leukemic tumor; 0.500 mg/kg i.p.): > 391.3% | toxicity (cancer): very low toxicity | anticarcinogenic activity in vivo (cancer): high anticarcinogenic activity in vivo

COC(=O)c1cn(C)c2c(O)cc3c(c12)C(CCl)CN3C(=O)c1cc2cc(OC)c(OC)c(OC)c2[nH]1 (stereo not drawn) [Compound (V), methyl 6-(5,6,7-trimethoxy-1H-indol-2-carbonyl)-8-chloromethyl-4-hydroxy-3-methyl-3,6,7,8-tetra-hydropyrrololo[3,2-e]indol-1-carboxylate]
%C/T (average survival of the tested group/average survival of the controls and untreated ones) (P388 leukemic tumor; 0.050 mg/kg i.p.): 133.9% | %C/T activity class (significance mark) (P388 leukemic tumor; 0.050 mg/kg i.p.): ** (Significant activity (strong): C/T > = 175%) | toxicity (cancer): very low toxicity | anticarcinogenic activity in vivo (cancer): high anticarcinogenic activity in vivo

COC(=O)c1cn(C)c2c(OC(=O)c3ccc([N+](=O)[O-])cc3)cc3c(c12)C(CCl)CN3C(=O)c1cc2cc(NC(=O)c3cc4ccccc4o3)ccc2[nH]1 (stereo not drawn) [IIIb]
IC50 (P-388): 0.02 ng/mL (≈ 0.0268 nM) | IC50 (A-549): 0.1 ng/mL (≈ 0.134 nM) | IC50 (HT-29): 0.5 ng/mL (≈ 0.67 nM) | IC50 (MEL-28): 0.5 ng/mL (≈ 0.67 nM)
